Reference: patent publication US20230288433A1, “DETECTION OF PHOSPHOINOSITIDES IN BLOOD CELLS AS A BIOMARKER FOR ALPHA SYNUCLEIN ASSOCIATED PATHOLOGIES AND A METHOD OF TREATMENT OF PARKINSON'S DISEASE AND THE RELATED NEURODEGENERATIONS” (YISSUM RESEARCH DEVELOPMENT COMPANY OF THE HEBREW …, priority 2021, published 2023)
Values belong to the molecule of their own block, whether it stands above or below them.

Key:
[1] = system: Numb-associated kinases (NAKs); assay: pAP2 (phospho-Thr156 μ2 subunit of AP2) signal by ICC in SK-Mel2 cells; format: cell-based; conditions: 10 μM for 3 hours
Protocol: FIGS. 12A-12H include fluorescent micrographs and graphs showing that α-Syn colocalizes with phosphorylated AP2 and PIP2 on clathrin-coated pits. (12A) SK-Mel2 cells were processed for the detection of the immunoreactive signals of endogenous α-Syn (ab 21976 ab, red), phosphorylated Thr156 μ2 subunit of AP2 (pAP2; gray) and PI4,5P2 (green) by immunocytochemistry (ICC). Bar=10 μm. (12B) SK-Mel2 cells treated with LP-935509 (10 μM, for 3 hours), to inhibit the phosphorylation of the μ2 subunit of AP2 and processed for ICC as in (12A). Bar=[…]. (12C) SK-Mel2 cells infected with lentivirus encoding shSNCA to silence α-Syn expression. Cells were treated with LP-935509 inhibitor as in (12B) and processed for ICC. Bar=[…]. (12D) SK-Mel2 cells as in (12A), however, immunoreacted for PI3,4P2 detection (green). Bar=[…]. […] Cells analyzed by FACS to immunodetect PI4,5P2 levels. […] (12G) Cells analyzed by FACS as in (12F) to detect PI3,4P2 signal. […] Colocalization of the signal obtained for α-Syn with the specified PIP was quantified and normalized to total α-Syn positive spots. […]
Phosphorylation at Thr156 of μ2 subunit of the clathrin adaptor AP2 starts following its binding to PI4,5P2 at the initiation of a CCP and throughout vesicle lifetime. The inventors analyzed SK-Mel2 cells, which express detectable levels of endogenous α-Syn protein. […]

PI3K/AKT pathway [2] = assay: Treatments in disease models with inhibitors of the PI3K/AKT pathway
Description: The PI3K/AKT pathway is activated in brains affected with PD and models thereof. Activated PI3K/AKT is exemplified by increases in PI3-Ps, including PI3,4,5P3 and PI3,4P2 that are required for the phosphorylation and activation of AKT phosphorylation at Thr308 and Ser 473. α-Syn is involved in activation of PI3K/AKT pathway. PI3K/AKT activation by α-Syn involves protein palmitoylation. […] Inhibitors of the PI3K/AKT pathway are useful to inhibit α-Syn′ toxicity. These may include Alpelisib and additional inhibitors of PI3K class I that act peripherally not crossing the blood brain barrier (BBB); or GDC-0084 and similar agents that can cross the BBB and act at the central nervous system. Or inhibitors of class II PI3K, for example, HY-151491, HY-151492 or HY-151490.α-Syn enhances PI3K activity by enhancing protein palmitoylation, including Ras palmitoylation that regulates PI3K activity. Class I and class II PI3Ks enzymes harbor a Ras binding domain and thus are affected by α-Syn. Class I and class II PI3Ks enzymes are activated by α-Syn and are targets for PD therapy. Inhibitors for class I and class II PI3Ks may be used for drug repurposing

[3] = system: APT1/APT2 depalmitoylases; assay: PIP3/PIP2 ratio by FACS in α-Syn expressing HepG2 cells with depalmitoylase inhibitors; format: cell-based; conditions: serum starved 4 hours, 10 μM each
Protocol: ML348 and ML349, inhibit the depalmitoylating enzymes Acyl protein thioesterase 1 and 2 (APT-1, APT-2, respectively). HepG2 cells were infected to express a mock vector (EV) or α-Syn. 5 days post infection, cells were serum starved for 4 hours in the presence of the indicated inhibitors: 2-Bromo-Palmitate (2BP 50 μM, an inhibitor of palmitoylation), ML348 and ML349 (10 μM each). PIP levels determined by FACS as in FIG. 4. The ratio of PI3,4,5P3 (PIP3) to PI4,5P2 (PIP2) is presented. A representative experiment out of n=2 highly similar experiments. Mean±SE of the replicates within one experiment, n>2,000 gated cells.

PI3K/AKT pathway [4] = assay: PIP3/PIP2 ratio (FACS) and PSer473/total AKT (Western blot) in HepG2 cells expressing α-Syn; format: cell-based; conditions: inhibitor 100 nM for 2 hours, combined with CRISPR/CAS for PI3KCA or PI3KCB
Protocol: FIGS. 25A-25D include vertical bar graphs showing that silencing either PI3KCA or PI3KCB interfere with α-Syn-mediated AKT activation. (25A) HepG2 cells were co-infected with an empty vector (EV) or α-Syn expressing vector together with a CRISPR/CAS vector to silence either PI3KCA (CA, p110α) or PI3KCB (CB, p110β), or a control vector (CT). 72 hours post infection, cells were processed for the detection of PIPs by FACS or analyzed by Western blotting for the detection of AKT. […] (25B) The effect of PIK75 (100 nM, PI3KCA inhibitor) or TGX 221 (100 nM, PIKCB inhibitor) on PIP3/PIP2 ratio (left) or PSer473/total AKT ratio (right) as a function of α-Syn expression. Inhibitors were added for 2 hours before cells were lysed. […] Results are mean±SD of n=3-4 trials.

HEK 293T cells [5] = assay: PI4,5P2 levels by ICC after rapamycin-induced recruitment of the Inp45p phosphatase to the plasma membrane; format: cell-based; conditions: HEK 293T expressing Lyn-FRB and FKBP-CFP-Inp54p, rapamycin 500 nM; DMSO treated cells set at 100%
Protocol: (§1) FIGS. 15A-15E include fluorescent micrographs, a micrograph, and graphs showing that the enhancing effect of α-Syn on CME is PI4,5P2 dependent. (15A) HEK 293T cells, transfected to co-express the three plasmids: Lyn-FRB, FKBP-CFP-Inp54p and WT α-Syn. On day of experiment, cells were serum starved for 90 minutes and then incubated for 7 minutes with 568-Tf and rapamycin (500 nM) to induce the recruitment of the Inp45p phosphatase (P-ase) to the plasma membrane along with internalization of 568-Tf. Control cells were treated in parallel with DMSO (0.5% v/v). Cells were then acid-washed, fixed and immunoreacted with anti α-Syn ab (MJFR1; Green). Direct fluorescence for CFP (P-ase; Grey) and 568-Tf (Red). (15B) HEK 293T cells expressing Lyn-FRB and FKBP-CFP-Inp54p were treated either with rapamycin or DMSO as described in (15A), followed by immunoreaction with anti PI4,5P2 ab (Echelon). A quantification of PI4,5P2 signal is shown (n>9 cells per treatment; mean±SE; * P<0.01 t-test). (15C) Graph showing quantification of internalized 568-Tf signal in cells transfected and treated as in (15A). Cells transfected with a mock vector (white bars, squares) or α-Syn (black bars, circles). […] Protein samples were analyzed by a western blot, immunoreacted with anti-Nir2 ab (Abcam). […] Sister cultures were immunoreacted with anti PI4,5P2 ab and analyzed by FACS. […]

HEK 293T cells [6] = assay: 568-Tf (transferrin) endocytosis with the rapamycin-inducible phosphatase; format: cell-based; conditions: control cultures without Inp45p expression
Protocol: as §1

Protocol for muscarinic receptors: To confirm the specificity of the PI4,5P2 signal that the inventors detected using anti PI4,5P2 Ab in cortical neurons, PI4,5P2 signal depletion following phospholipase C (PLC) activation was determined. […] Control cells were conditioned and treated in parallel but without the drug. Cells were fixed and immunoreacted with anti PI4,5P2 ab (FIG. 10A).

Structure (SMILES): COc1ncccc1-c1cnn2ccc(N3CCN(C(=O)OC(C)C)CC3)nc12 [LP-935509]
- colocalization of α-Syn and pAP2 [1]: no obvious colocalization
- pAP2 signal [1]: dramatically reduced

Structure (SMILES): NC1(c2ccc(-c3nc4ccn5c(=O)[nH]nc5c4cc3-c3ccccc3)cc2)CCC1 [MK2206]
- aberrant activation of the PI3K/AKT pathway by α-Syn (PI3K/AKT pathway [2]): reduce the aberrant activation of this pathway by α-Syn

Structure (SMILES): O=C(CN1CCN(C(=O)c2ccco2)CC1)Nc1cc(C(F)(F)F)ccc1Cl [ML348]
- effects of α-Syn to enhance PIP3 levels (PIP3 to PIP2 ratio) [3]: interfere with the effects of α-Syn to enhance PIP3 levels

Structure (SMILES): COc1ccc(N2CCN(C(=O)c3cc4c(s3)-c3ccccc3S(=O)(=O)C4)CC2)cc1 [ML349]
- effects of α-Syn to enhance PIP3 levels (PIP3 to PIP2 ratio) [3]: interfere with the effects of α-Syn to enhance PIP3 levels

Structure (SMILES): Cc1ccc([N+](=O)[O-])cc1S(=O)(=O)N(C)/N=C/c1cnc2ccc(Br)cn12 [PIK75]
- α-Syn-mediated increases in PI3K/AKT pathway activation (PIP3/PIP2 ratio, PSer473/total AKT) (PI3K/AKT pathway [4]): inhibition of α-Syn-mediated increases in PI3K/AKT pathway activation
- aberrant activation of the PI3K/AKT pathway by α-Syn (PI3K/AKT pathway [2]): reduce the aberrant activation of this pathway by α-Syn

Structure (SMILES): Cc1cc(C(C)Nc2ccccc2)c2nc(N3CCOCC3)cc(=O)n2c1 (stereo not drawn) [TGX 221]
- α-Syn-mediated increases in PI3K/AKT pathway activation (PIP3/PIP2 ratio, PSer473/total AKT) (PI3K/AKT pathway [4]): inhibition of α-Syn-mediated increases in PI3K/AKT pathway activation
- aberrant activation of the PI3K/AKT pathway by α-Syn (PI3K/AKT pathway [2]): reduce the aberrant activation of this pathway by α-Syn

- PI4,5P2 signal following PLC activation (muscarinic receptors): loss of PI4,5P2 signal
Structure (SMILES): CC[C@@H]1C(=O)OC[C@@H]1Cc1cncn1C [pilocarpine]

Structure (SMILES): CO[C@H]1C[C@@H]2CC[C@@H](C)[C@@](O)(O2)C(=O)C(=O)N2CCCC[C@H]2C(=O)O[C@H]([C@H](C)C[C@@H]2CC[C@@H](O)[C@H](OC)C2)CC(=O)[C@H](C)/C=C(\C)[C@@H](O)[C@@H](OC)C(=O)[C@H](C)C[C@H](C)/C=C/C=C/C=C/1C [rapamycin]
- PI4,5P2 levels (HEK 293T cells [5]): 26%
- α-Syn-induced CME (568-Tf internalization) (HEK 293T cells [6]): no effect
